{"source": "patent US5045543A", "about": "“5-amino or substituted amino 1,2,3-triazoles useful as antimetastatic agents” (Merck & Co., Inc., priority 1989, dated 1991)", "key": {"PRPP synthetase": {"tested_on": "PRPP synthetase", "experiment": "Direct inhibition of PRPP synthetase in vitro", "assay_type": "biochemical", "details": "in vitro studies"}, "Normal Human Fibroblasts": {"tested_on": "Normal Human Fibroblasts", "experiment": "Inhibition of fibroblast growth", "assay_type": "cell-based", "details": "for inhibition at 0.1 µg/mL / inhibition at 0.2 µg/mL / inhibition at 0.4 µg/mL / inhibition at 1 µg/mL / inhibition at 2 µg/mL: Homo sapiens, Fibroblast", "experimental": "(§1) The inhibition of PRPP biosynthesis by Compound A and analogs supported the claimed use of the compounds as antiproliferative agents, since this inhibition should prevent all de novo and salvage biosynthesis of purine and pyrimidine nucleotides. […] The data from NHEK's is particularly important since it is the overproliferation of these cells that occurs in psoriasis.\n(§2) In these experiments Murine keratinocyte transformed cell line PAPp26 was cultured in Dulbecco's modified Eagle's medium with 10% fetal calf serum at 37° C., 5% CO2. Each well of a 96 well plate was seeded with 2000 cells in 200 μl of each drug dilution in duplicate. A plate was stopped and fixed for each time point, stained with Giemsa and then read in a Titertek plate reader at 650 nm, and the absorbances were calibrated with known cell numbers on control plates. NHEK's were obtained from Clonetics Corporation at the secondary stage. Antiproliferative assays were done as for the murine keratinocytes. Media (KGM) without serum was supplied by Clonetics also. Normal Human Fibroblasts and MDBK cells were grown under the same conditions except that MDBK cells were grown at 41° C."}, "MDBK cells": {"tested_on": "MDBK cells", "experiment": "Inhibition of the growth of MDBK cells", "assay_type": "cell-based, Bovine", "details": "for inhibition at 1 µg/mL / inhibition at 2 µg/mL: Bos taurus, MDBK", "experimental": "as §1, §2"}, "rat PMN's": {"tested_on": "rat PMN's", "experiment": "Eicosanoid production in rat PMN's", "assay_type": "cell-based", "details": "1 μg/ml"}, "[1]": {"tested_on": "pig skin epidermal basal cells (keratinocytes)", "experiment": "UV induced hyperproliferation in pig skin in vivo (topical antiproliferative activity)", "details": "for effect on uv induced hyperproliferation: daily topical application; for LI (labelling index): uv exposed Gel #1 control 20.8, normal 7.6", "experimental": "The topical antiproliferative activities, along with in vitro antiproliferative activities against human keratinocytes and fibroblasts, provide the biological data in support of the claimed utility:\nIn one experiment, a 20 kg pig was sedated and multiple areas of clipped skin were exposed to uv radiation sufficient to provoke a moderate hyperproliferative response within several days of exposure. On days 0, 1, 2 and 3 replicate irradiated sites were treated topically with Compound A in several vehicles or solvents. Topical preparations included a 2% drug in Gel #1, a combination of isopropyl myristate:Crodamol:ethanol, 1:1:2, or DMSO. The hyperproliferative response of the skin to uv was assessed on day 4 by injecting ^3 H-thymidine intradermally, and, 1 hour later, removing the sites by punch biopsy and processing the samples for autoradiography. Such autoradiographs indicate the number of epidermal cells in S phase synthesizing DNA and this is a common tool used by dermatologists to assess inhibition of proliferation in vivo. A single injection of methotrexate, 4 hours prior to ^3 H-thymidine injection was used as a positive control for inhibition of DNA synthesis. A labelling index, L.I., which is the percent of the total number of epidermal basal cells (keratinocytes) counted showing label incorporation. Four days after exposure to uv, the L.I. of pig skin increased from 7.6% to 20.8% (normal human skin ca. 2%, psoriatic lesions ca. 25%, for comparison)."}, "[2]": {"tested_on": "keratinocyte proliferation", "experiment": "Keratinocyte proliferation measured by metaphase arrest with colchicine", "assay_type": "in vivo, pig"}}, "note": "“Also recorded” adds a separate entry of the source.", "data": [{"compound": "NC(=O)c1nnn(Cc2cc(Cl)c(C(=O)c3ccc(Cl)cc3)c(Cl)c2)c1N", "note": "[Compound A, 5-amino-1-(4-(4-chlorobenzoyl)-3,5-dichlorobenzyl)-1,2,3-triazole-4-carboxamide]", "values": [{"measurement": "direct inhibition of PRPP synthetase", "setting": "PRPP synthetase", "result": "no direct inhibition of the enzyme occurred"}, {"measurement": "Fibroblast growth, No. of Cells - seeding cells", "setting": "Normal Human Fibroblasts; 0.1 μg/ml, 2 days, control 10.5 × 10^3", "result": "4 × 10^3"}, {"measurement": "Fibroblast growth, No. of Cells - seeding cells", "setting": "Normal Human Fibroblasts; 0.1 μg/ml, 3 days, control 14 × 10^3", "result": "5 × 10^3"}, {"measurement": "Fibroblast growth, No. of Cells - seeding cells", "setting": "Normal Human Fibroblasts; 0.1 μg/ml, 6 days, control 23 × 10^3", "result": "19 × 10^3"}, {"measurement": "Fibroblast growth, No. of Cells - seeding cells", "setting": "Normal Human Fibroblasts; 0.2 μg/ml, 2 days, control 10.5 × 10^3", "result": "5 × 10^3"}, {"measurement": "Fibroblast growth, No. of Cells - seeding cells", "setting": "Normal Human Fibroblasts; 0.2 μg/ml, 3 days, control 14 × 10^3", "result": "2 × 10^3"}, {"measurement": "Fibroblast growth, No. of Cells - seeding cells", "setting": "Normal Human Fibroblasts; 0.2 μg/ml, 6 days, control 23 × 10^3", "result": "16.5 × 10^3"}, {"measurement": "Fibroblast growth, No. of Cells - seeding cells", "setting": "Normal Human Fibroblasts; 0.4 μg/ml, 2 days, control 10.5 × 10^3", "result": "7 × 10^3"}, {"measurement": "Fibroblast growth, No. of Cells - seeding cells", "setting": "Normal Human Fibroblasts; 0.4 μg/ml, 3 days, control 14 × 10^3", "result": "6.5 × 10^3"}, {"measurement": "Fibroblast growth, No. of Cells - seeding cells", "setting": "Normal Human Fibroblasts; 0.4 μg/ml, 6 days, control 23 × 10^3", "result": "13 × 10^3"}, {"measurement": "Fibroblast growth, No. of Cells - seeding cells", "setting": "Normal Human Fibroblasts; 1.0 μg/ml, 2 days, control 10.5 × 10^3", "result": "2 × 10^3"}, {"measurement": "Fibroblast growth, No. of Cells - seeding cells", "setting": "Normal Human Fibroblasts; 1.0 μg/ml, 3 days, control 14 × 10^3", "result": 0}, {"measurement": "Fibroblast growth, No. of Cells - seeding cells", "setting": "Normal Human Fibroblasts; 1.0 μg/ml, 6 days, control 23 × 10^3", "result": "6 × 10^3"}, {"measurement": "Fibroblast growth, No. of Cells - seeding cells", "setting": "Normal Human Fibroblasts; 2.0 μg/ml, 2 days, control 10.5 × 10^3", "result": "2 × 10^3"}, {"measurement": "Fibroblast growth, No. of Cells - seeding cells", "setting": "Normal Human Fibroblasts; 2.0 μg/ml, 3 days, control 14 × 10^3", "result": ".5 × 10^3"}, {"measurement": "Fibroblast growth, No. of Cells - seeding cells", "setting": "Normal Human Fibroblasts; 2.0 μg/ml, 6 days, control 23 × 10^3", "result": "4 × 10^3"}, {"measurement": "inhibition at 0.1 µg/mL", "setting": "Normal Human Fibroblasts; 48 h, 0.1 μg/ml, 2 days", "result": 62, "unit": "%"}, {"measurement": "inhibition at 0.2 µg/mL", "setting": "Normal Human Fibroblasts; 48 h, 0.2 μg/ml, 2 days", "result": 48, "unit": "%"}, {"measurement": "inhibition at 0.4 µg/mL", "setting": "Normal Human Fibroblasts; 48 h, 0.4 μg/ml, 2 days", "result": 33, "unit": "%"}, {"measurement": "inhibition at 1 µg/mL", "setting": "Normal Human Fibroblasts; 48 h, 1.0 μg/ml, 2 days", "result": 81, "unit": "%"}, {"measurement": "inhibition at 2 µg/mL", "setting": "Normal Human Fibroblasts; 48 h, 2.0 μg/ml, 2 days", "result": 81, "unit": "%"}, {"measurement": "inhibition at 0.1 µg/mL", "setting": "Normal Human Fibroblasts; 72 h, 0.1 μg/ml, 3 days", "result": 64, "unit": "%"}, {"measurement": "inhibition at 0.2 µg/mL", "setting": "Normal Human Fibroblasts; 72 h, 0.2 μg/ml, 3 days", "result": 86, "unit": "%"}, {"measurement": "inhibition at 0.4 µg/mL", "setting": "Normal Human Fibroblasts; 72 h, 0.4 μg/ml, 3 days", "result": 54, "unit": "%"}, {"measurement": "inhibition at 1 µg/mL", "setting": "Normal Human Fibroblasts; 72 h, 1.0 μg/ml, 3 days", "result": 100, "unit": "%"}, {"measurement": "inhibition at 2 µg/mL", "setting": "Normal Human Fibroblasts; 72 h, 2.0 μg/ml, 3 days", "result": 96, "unit": "%"}, {"measurement": "inhibition at 0.1 µg/mL", "setting": "Normal Human Fibroblasts; 144 h, 0.1 μg/ml, 6 days", "result": 18, "unit": "%"}, {"measurement": "inhibition at 0.2 µg/mL", "setting": "Normal Human Fibroblasts; 144 h, 0.2 μg/ml, 6 days", "result": 28, "unit": "%"}, {"measurement": "inhibition at 0.4 µg/mL", "setting": "Normal Human Fibroblasts; 144 h, 0.4 μg/ml, 6 days", "result": 44, "unit": "%"}, {"measurement": "inhibition at 1 µg/mL", "setting": "Normal Human Fibroblasts; 144 h, 1.0 μg/ml, 6 days", "result": 74, "unit": "%"}, {"measurement": "inhibition at 2 µg/mL", "setting": "Normal Human Fibroblasts; 144 h, 2.0 μg/ml, 6 days", "result": 83, "unit": "%"}, {"measurement": "inhibition of growth of Normal Human Fibroblasts", "setting": "Normal Human Fibroblasts; approximately 1.0 μg/ml", "result": "substantial inhibition"}, {"measurement": "MDBK growth, # Cells × 10^6 - # Cells Seeded", "setting": "MDBK cells; 1.0 μg/ml, 1 day, control 1.40", "result": "0 × 10^6"}, {"measurement": "MDBK growth, # Cells × 10^6 - # Cells Seeded", "setting": "MDBK cells; 1.0 μg/ml, 3 days, control 4.86", "result": "3.12 × 10^6"}, {"measurement": "MDBK growth, # Cells × 10^6 - # Cells Seeded", "setting": "MDBK cells; 2.0 μg/ml, 1 day, control 1.40", "result": "0 × 10^6"}, {"measurement": "MDBK growth, # Cells × 10^6 - # Cells Seeded", "setting": "MDBK cells; 2.0 μg/ml, 3 days, control 4.86", "result": "0 × 10^6"}, {"measurement": "inhibition at 1 µg/mL", "setting": "MDBK cells; 24 h, 1.0 μg/ml, 1 day", "result": 100, "unit": "%"}, {"measurement": "inhibition at 2 µg/mL", "setting": "MDBK cells; 24 h, 2.0 μg/ml, 1 day", "result": 100, "unit": "%"}, {"measurement": "inhibition at 1 µg/mL", "setting": "MDBK cells; 72 h, 1.0 μg/ml, 3 days", "result": 36, "unit": "%"}, {"measurement": "inhibition at 2 µg/mL", "setting": "MDBK cells; 72 h, 2.0 μg/ml, 3 days", "result": 100, "unit": "%"}, {"measurement": "inhibition of growth of MDBK cells", "setting": "MDBK cells; approximately 1.0 μg/ml", "result": "substantial inhibition"}, {"measurement": "inhibition of 5-HETE production", "setting": "rat PMN's", "result": "inhibit"}, {"measurement": "inhibition of HHT production", "setting": "rat PMN's", "result": "inhibit"}, {"measurement": "inhibition of LTB4 production", "setting": "rat PMN's", "result": "inhibit"}, {"measurement": "inhibition of uv induced hyperproliferation in pig skin", "setting": "[1]; 2% formulation in Gel #1, topical", "result": "inhibits completely"}, {"measurement": "effect on uv induced hyperproliferation", "setting": "[1]; Crodamol", "result": "less effective"}, {"measurement": "effect on uv induced hyperproliferation", "setting": "[1]; DMSO", "result": "no effect"}, {"measurement": "effect on uv induced hyperproliferation", "setting": "[1]; Gel #1", "result": "dramatically reduced the uv induced hyperproliferation"}, {"measurement": "topical antiproliferative activity", "setting": "[1]; effects dependent upon vehicle", "result": "active topically as an antiproliferative; also recorded: Topical activity against keratinocyte proliferation has been demonstrated"}, {"measurement": "UV induced hyperproliferation, % Inhibition", "setting": "[1]; topical, Crodamol", "result": 29, "unit": "%"}, {"measurement": "Labelled Cells", "setting": "[1]; topical, Crodamol, of 963 basal cells counted", "result": 165}, {"measurement": "LI (labelling index)", "setting": "[1]; topical, Crodamol", "result": 17.0, "unit": "%"}, {"measurement": "UV induced hyperproliferation, % Inhibition", "setting": "[1]; topical, DMSO", "result": 0, "unit": "%"}, {"measurement": "Labelled Cells", "setting": "[1]; topical, DMSO, of 744 basal cells counted", "result": 150}, {"measurement": "LI (labelling index)", "setting": "[1]; topical, DMSO", "result": 20.1, "unit": "%"}, {"measurement": "UV induced hyperproliferation, % Inhibition", "setting": "[1]; topical, Gel #1", "result": 100, "unit": "%"}, {"measurement": "inhibition of proliferation compared with injected methotrexate", "setting": "[1]; topical, Gel #1", "result": "comparable to that for injected methotrexate"}, {"measurement": "Labelled Cells", "setting": "[1]; topical, Gel #1, of 1020 basal cells counted", "result": 57}, {"measurement": "LI (labelling index)", "setting": "[1]; topical, Gel #1", "result": 5.6, "unit": "%"}, {"measurement": "inhibition of keratinocyte proliferation", "setting": "[2]", "result": "inhibits"}]}]}
